One assay concerns the target KRAS-G12V (Homo sapiens, UniProt P01116, G12V). Kind of assay: SOS-catalyzed nucleotide exchange assay (Procedure A, TR-FRET), KRAS-G12V. It is filed as biochemical. The note with it: nucleotide exchange, read-out: KRAS G12V GNE IC50. The essentials: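 RAS (G12C carries C51S/C80L/C118S) loaded with Bodipy-GDP, complexed with Tb-streptavidin; cpd 60 min RT; + SOS/3 mM GTP. G12C 3/40 nM, WT 1/40, NRAS 1.25/40 nM RAS/SOS, 60 min; G12V 1.25/160 nM, 90 min. Normalized to DMSO and saturating inhibitor; 4PL fit.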
Background: Time-resolved FRET reads energy transfer from a long-lived donor to a nearby acceptor.

The target in a further assay is HRAS (Homo sapiens, UniProt P01112). Kind of assay: SOS-catalyzed nucleotide exchange assay (Procedure A, TR-FRET), HRAS. The class given is biochemical. The note with it: read-out: HRAS GNE IC50. The essentials: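 Signal ratio (520/495 nm, excitation 340 nm) reports Bodipy-GDP retention on biotinylated RAS after SOS-catalyzed exchange with 3 mM GTP. SOS was 40 nM, except 160 nM for G12V. Room-temperature exchange lasted 60 min (90 min for G12V), following a 60 min compound preincubation.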
HRAS, sequence (P01112 with tags, fused parts or gaps): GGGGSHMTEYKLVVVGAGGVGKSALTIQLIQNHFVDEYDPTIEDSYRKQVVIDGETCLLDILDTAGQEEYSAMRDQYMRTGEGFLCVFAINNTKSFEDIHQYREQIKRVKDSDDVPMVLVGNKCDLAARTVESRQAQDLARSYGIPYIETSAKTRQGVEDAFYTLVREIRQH

A further assay deals with NRAS (Homo sapiens, UniProt P01111). Kind of assay: SOS-catalyzed nucleotide exchange assay (Procedure A, TR-FRET), NRAS. Particulars: read-out: NRAS GNE IC50. It is filed as biochemical. From the text:
Procedure for SOS-Catalyzed Nucleotide Exchange Assay for KRAS-WT, G12C/D/V, G13D, HRAS, and NRAS (Procedure A)
Recombinant KRAS-G12C protein used in this assay has an additional triple mutation (C51S/C80L/C118S). Whereas KRAS-WT, G12D/V, G13D, HRAS and NRAS are in context of their WT protein sequence background. Specifically, the SOS-catalyzed nucleotide exchange assay utilizes a preformed TR-FRET complex containing a specific biotinylated RAS protein (KRAS-WT, G12C/V/D, G13D, HRAS, NRAS; described above) with Bodipy-GDP, and Terbium-streptavidin. Compounds are preincubated with this complex for 60 minutes. Subsequently, recombinant human SOS protein and unlabeled GTP are added to initiate the exchange reaction. Small molecule inhibitors stabilize the Bodipy-GDP complex whereas the untreated protein rapidly exchanges Bodipy-GDP for unlabeled GTP resulting in reduced TR-FRET signal.
To assemble the preformed TR-FRET complexes, each biotinylated RAS protein is diluted to 2 μM in an EDTA Buffer (20 mM HEPES pH 7.5, 50 mM sodium chloride, 10 mM EDTA, and 0.01% Tween) and incubated at room temperature for one hour. This mixture is then further diluted to 90 nM in an Assay Buffer (20 mM HEPES pH 7.5, 150 mM sodium chloride, 10 mM magnesium chloride, and 0.005% Tween) containing 15 nM of Terbium-Streptavidin (Invitrogen, catalog #PV3577) and 900 nM of Bodipy-GDP (Invitrogen, catalog #G22360) and incubated at room temperature for six hours. It should be noted that this preformed TR-FRET complex for each of the RAS protein were made ahead of time, aliquoted and stored at −80° C. until the day of the experiment.
Each test compound (10 mM stock in DMSO) is diluted in DMSO to make a final-10-point, 3-fold dilution and is acoustically dispensed into a 384-well assay plate (Corning, catalog #3820) using an Echo 550 (Labcyte). Each well of the assay plate receives 3 μL of a specific 3×RAS preformed TR-FRET complex and 3 μL of Assay Buffer and is incubated at room temperature for 60 minutes (preincubation time). Each well then receives 3 μL of 3×recombinant human SOS protein and GTP (Sigma, G8877) in Assay Buffer and is incubated at room temperature for 30 minutes (G13D), 60 minutes (KRAS WT/G12C/D, H/NRAS) or 90 minutes for G12V. […]
The time-resolved fluorescence resonance energy transfer (TR-FRET) signal is measured on an Envision (PerkinElmer) plate reader: Excitation filter=340 nm; emission 1=495 nm; emission2=520 nm; dichroic mirror=D400/D505; delay time=[…]. The signal of each well is determined as the ratio of the emission at 520 nm to that at 495 nm. Percent effect of each well is determined after normalization to control wells containing DMSO (no effect) or a saturating concentration of inhibitor (max effect). […]

The next assay concerns MKN-1 cells. Kind of assay: Cellular phospho-ERK assay, MKN-1 cells (amplified wild-type KRAS). Particulars: Homo sapiens, amplified wild-type KRAS, 2 hours, read-out: MKN1 pERK IC50. It is filed as cell-based. In a few lines:
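Overnight-plated cells on collagen received test compound (up to 30 μM final, threefold steps, ten concentrations) for two hours. After lysis at room temperature, phosphorylated and total ERK were quantified together by Alpha SureFire, and IC50 is based on the phospho-to-total signal ratio.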

NRAS, sequence (P01111 with tags, fused parts or gaps): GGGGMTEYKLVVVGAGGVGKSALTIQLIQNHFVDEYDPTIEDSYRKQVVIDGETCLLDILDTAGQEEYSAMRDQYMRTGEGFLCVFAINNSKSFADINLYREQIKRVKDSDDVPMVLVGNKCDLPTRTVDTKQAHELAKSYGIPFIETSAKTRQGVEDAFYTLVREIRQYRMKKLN
KRAS-G12V, sequence (P01116 with tags, fused parts or gaps isoform P01116-2 G12V): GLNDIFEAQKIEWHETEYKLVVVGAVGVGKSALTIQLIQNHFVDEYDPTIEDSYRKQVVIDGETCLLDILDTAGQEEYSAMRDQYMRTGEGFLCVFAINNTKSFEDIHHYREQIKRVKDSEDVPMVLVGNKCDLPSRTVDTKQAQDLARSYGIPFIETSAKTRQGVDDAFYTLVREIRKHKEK

As a reminder, the IC50 is the concentration that gives 50% inhibition. For the compound `C#Cc1c(F)ccc2cc(O)cc(-c3nccc4c5c(N6CCOC[C@@](C)(O)C6)nc(OC[C@@]67CCCN6C[C@H](F)C7)nc5n(C)c34)c12` [Ex-18, (S)-4-(8-(8-ethynyl-7-fluoro-3-hydroxynaphthalen-1-yl)-2-(((2R,7aS)-2-fluorotetrahydro-1H-pyrrolizin-7a(5H)-yl)methoxy)-9-methyl-9H-pyrido[4′,3′:4,5]pyrrolo[2,3-d]pyrimidin-4-yl)-6-methyl-1,4-oxazepan-6-ol], the concentration for half-maximal inhibition (IC50) at KRAS-G12V stood at 0.00385 µM; on HRAS, 1.82 µM; at NRAS it was 8.82 µM; in the assay on MKN-1 cells it was 0.00767 µM.

The values above are taken from patent US20260176289A1, “SMALL MOLECULE INHIBITORS OF KRAS PROTEINS” (Merck Sharp & Dohme LLC, priority 2022, published 2026).
